Source: article PMC11811597, “Phenomics‐Based Discovery of Novel Orthosteric Choline Kinase Inhibitors” (Angewandte Chemie (International Ed. in English), 2025)
“Also recorded” adds a separate entry of the source.

Assays:
CHKA [1] = target: T1, CHKA (Homo sapiens, UniProt P35790); assay: PISA thermal profiling, intact HepG2 cells; assay type: cell-based; design: endogenous in cells; host or cells: intact HepG2 cells; settings: 30 µM; for effect_CETSA_Intact (PISA amplitude), CHKA: 60 min, n=3
Protocol: To further corroborate our findings, we next performed the proteome integral solubility alteration (PISA) assay in HepG2 human hepatoma cells that express high levels of CHKA. Conceptually building on the cellular thermal shift assay (CETSA) with mass spectrometry based detection,[19, 20] PISA leverages compound‐mediated stabilisation of target proteins without the need of chemical modification in intact cells. […]
Experiments were performed as described earlier with few modifications. In short, 3 replicates of intact HepG2 cells were treated with 30 µM UNC0638, […] or corresponding volume of DMSO in medium-free experimental buffer for 60 min at 37 °C with end-over-end rotation. For lysates: Washed K562 cells were resuspended in medium-free experimental buffer and lysed by three freeze-thaw cycles. Lysate was centrifugated 20,000 × g for 20 min at 4 °C to remove cell debris. The cleared lysate was treated with 30 µM UNC0638, UNC0373 or corresponding volume of DMSO for 15 min at RT with end-over-end rotation. Each treated cell suspension or lysate was divided into 12 aliquots and subjected to a 12-step heat gradient from 44 °C to 64 °C. All the temperature points were pooled together to form […] individual samples. Soluble fraction was separated from precipitated proteins […]
by centrifugation at 30,000 × g for 20 min at 4 °C. The soluble fractions were collected to fresh tubes and further processed to be analysed with mass spectrometry. Sample handling, TMT labelling, LC-MS/MS analysis, protein identification and data analysis was performed as described earlier.[12] […]
Biosciences) was used for data analysis. The blood was obtained under an approved ethical review from the Regional Ethical Review Board in Stockholm, approval number 2015/2001-31/2. The donors gave their consent to participate after written and oral information.

CHKA [2] = target: T1, CHKA; assay: Competitive affinity-based chemoproteomics (UNC0965 matrix), MCF7 lysate; assay type: binding; design: endogenous in cells; host or cells: MCF7 whole cell lysate; settings: 20 μM competitor; for FC vs DMSO (log2 competition), CHKA: MCF7 lysate, n=2; for competition for CHKA binding to affinity matrix: MCF7 lysates
Protocol: A-366 and UNC0638 were purchased from Tocris. ARIAD and V-11-07-11 were purchased from Wuxi Apptec. UNC0737 and UNC0965 were synthesised as previously described.[1] Hemicholinium-3 and pyruvate kinase/lactic dehydrogenase enzymes were purchased from Sigma Aldrich. Aqueous and organic solvents were MS-grade and acquired by Sigma Aldrich unless stated otherwise.
MDA-MB-231, MCF7 and HEK293 cells were cultured in DMEM (Gibco, #11965092) supplemented with 10% FBS. K562 were cultured in IMDM (Gibco, #12440053) supplemented with 10% FBS. HepG2 were cultured in MEM (Gibco, #11095080) supplemented with 10 % FBS. […]
cultured in McCoy’s 5A (Sigma, M8403) supplemented with 10 % FBS and 1x GlutaMAX (Gibco, #35050061). Cells were maintained at 37 °C in a humidified 5% CO2 atmosphere. Peripheral blood mononuclear cells (PBMC) were isolated from healthy blood donors by density centrifugation. […]
Chemical Proteomics Drug Pulldown
For lysate generation MCF7 cells were grown until approximately 80% confluency before being pelleted and washed with PBS. Cell pellets were subsequently lysed by addition of Buffer A (50 mM Tris pH 7.5, 0. 8% v/v NP-40, 5% v/v glycerol, 1.5 mM MgCl2, 100 mM NaCl, 25 mM NaF, 1 mM Na3VO4, 1 mM PMSF, 1 mM DTT, 10 μg mL−1 TLCK, 1 μg mL−1 Leupeptin, 1 μg mL−1 Aprotinin, 1 μg mL−1 soy bean trypsin) as previously described.[2]
For each pulldown condition, UNC0965 was coupled to 100 μL of UltraLink Immobilized Streptavidin Plus bead slurry (50% in isopropanol, GE Healthcare) to generate the affinity matrix as previously […]
described.[2] Lysates were precleared with bead slurry (100 μL) for 30 min at 4 °C and then treated with UNC0638 or UNC0737 (20 μM) or DMSO control for 30 min at 4 °C followed by incubation with affinity matrix for 2 h at 4 °C. Affinity matrices were washed with buffer A (5 mL) and proteins eluted with 100 μL of 2x Laemmli sample buffer, 100 mM DTT, in PBS and heating for 10 min at 90 °C.
Eluents (70 µL) were diluted in 0.1 M Tris (pH 7.8) to 200 µL, reduced with 5 mM DTT for 30 min at RT, and alkylated with 20 mM iodoacetamide for 30 min at RT in the dark. […]
Digested samples were analysed by nano-UPLC–MS/MS using a Dionex Ultimate 3000 nano UPLC fitted with an EASY spray column (75 μm × 500 mm, 2 μm particle size, Thermo Scientific), coupled to an Orbitrap Q Exactive instrument. […]
Raw data was processed using MaxQuant[3] version 2.0.1.0 and the reference complete human proteome FASTA file (UniProt, downloaded 05.08.21). Label Free Quantification (LFQ) and Match Between Runs were selected; Cysteine carbamidomethylation was selected as a fixed modification, and methionine oxidation and asparagine deamidation as variable modifications. Default settings for identification and quantification were used. […]

T1 sequence (P35790 whole entry): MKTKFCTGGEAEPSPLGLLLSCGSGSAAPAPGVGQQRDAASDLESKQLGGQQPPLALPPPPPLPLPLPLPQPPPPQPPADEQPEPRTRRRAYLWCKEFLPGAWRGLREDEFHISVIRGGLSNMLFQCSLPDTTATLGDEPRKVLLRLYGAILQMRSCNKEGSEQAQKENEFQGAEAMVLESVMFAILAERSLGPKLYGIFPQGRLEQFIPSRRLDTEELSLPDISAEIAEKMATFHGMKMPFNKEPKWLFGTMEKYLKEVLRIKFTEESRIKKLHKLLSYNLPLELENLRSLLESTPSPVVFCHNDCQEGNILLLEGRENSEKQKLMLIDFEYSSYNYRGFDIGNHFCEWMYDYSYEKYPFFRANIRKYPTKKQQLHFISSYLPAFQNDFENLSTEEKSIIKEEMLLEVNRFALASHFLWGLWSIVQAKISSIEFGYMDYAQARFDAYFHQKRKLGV

Row | Structure (SMILES) | stabilisation of CHKA (PISA) (CHKA [1]) | effect_CETSA_Intact (PISA amplitude), CHKA (CHKA [1]) | FC vs DMSO (log2 competition), CHKA (CHKA [2]) | competition for CHKA binding to affinity matrix (CHKA [2])
1 | COc1cc2c(NC3CCN(C(C)C)CC3)nc(C3CCCCC3)nc2cc1OCCCN1CCCC1 [UNC0638] | significant stabilisation of CHKA | 0.57 | -2.284 | shared off‐target
2 | COc1cc2c(N(C)C3CCN(C(C)C)CC3)nc(C3CCCCC3)nc2cc1OCCCN1CCCC1 [UNC0737] | significant stabilisation of CHKA | 0.619 | -4.09 | shared off‐target; also recorded: even stronger competition
